Columns and labels:
[1] = system: intestinal villi of Wistar rats; assay: In vivo local delivery of antibody-CGLY via intrajejunal administration; settings: rat, 1 mg mL^−1 FITC-IgG in 50% v/v CGLY2:1, 2 h
Protocol: Rats receiving equivalent saline injection without FITC-IgG were used as the negative control group. After 2 h, the rats were sacrificed and jejunal tissues were harvested and preserved using Swiss-rolling technique^[14]. […] The tissues were then frozen at −80° C. in the presence of optimum cutting temperature (OCT) compound and tissue sections were cut into 25 m thickness. was visualized using a slide scanner microscope (ZEISS Axio Scan.Z1) and the images processed using Zen™ (Blue edition) software.

[2] = cation:anion 1:2
Source text: IL selection. A library of ILs was designed and synthesized to assess siRNA delivery into skin. Cholinium was used as the cation in all ILs due to its biocompatibility. Several different anions were used to synthesize ILs (FIGS. 24A-24E). […] Other anions were chosen for several reasons. First, anions containing shorter linear carbon chains were chosen in contrast to geranic acid to assess the impact of the chain length on siRNA stability and delivery. Anions with aromatic groups were chosen since they might interact with the stacked RNA base pairs via electrostatic, hydrophobic, and polar interactions. All ILs were prepared at a stoichiometric ratio of 1:2 (cation:anion) and were assessed for stability and siRNA delivery. […] In addition, since both interleukin and ILs have been denoted as “IL,” for the purpose of clarity, all interleukins are referred by a numerical value throughout the manuscript.
(§1) Skin-penetrating IL-RNA complexes. The cholinium-based IL library was synthesized as described previously (26). Briefly, the cation, choline bicarbonate, and various anions were mixed at a 1:2 ratio to prepare ILs following salt metathesis reaction. […] The resulting IL solution was dried using a rotary evaporator at 20 mbar at 60° C. for 2 hours. The residual water was removed in a vacuum oven at 60° C. for 48 hours. The ILs that were viscous at RT were characterized via NMR with dimethyl sulfoxide (DMSO)-d6 on an Agilent DD2 600-MHz spectrometer (Supplementary Materials and Methods). ILs were mixed with RNA (100 μM) at a volumetric ratio of 1:1 and incubated for 30 min at RT. The RNA-IL solutions (1 ml) were dialyzed against 10 mM sodium phosphate buffer for 72 hours using Dialysis Cassettes (10,000 molecular weight cutoff, Invitrogen). The concentration of RNA was confirmed and normalized using a NanoDrop instrument (Thermo Fisher Scientific). The stability of the RNA in the IL solution was determined using CD and gel electrophoresis.

siRNA = settings: IL 50% (v/v), 30 min incubation, dialysis 72 h
Protocol: as §1
RNA concentrations were normalized in 10 mM sodium phosphate buffer and incubated for 30 mins at RT to ensure reduction and equilibrium, and then loaded into quartz cuvettes. Near-UV spectra were recorded from 200 nm to 310 nm at 20° C. by averaging 5 scans at 0.1 nm intervals for each sample. Spectrum Manager 2 was used to subtract the baseline and the spectra were plotted as molar ellipticity, [0] (deg.cm2.dmol-1).

[3] = anion of ionic liquid; cited from earlier work
porcine skin = assay: Porcine skin penetration of Cy5-labeled siRNA in Franz diffusion cells (tape-stripping); assay type: in vitro ADME; settings: 24 h, IL 50% v/v or naked siRNA
Protocol: Skin penetration studies. Skin penetration studies were performed using porcine skin in FDCs, as described previously (40). A total volume of 20 μl of Cy5-labeled RNA (50 μM) in IL solutions was applied to the porcine skin surface and was incubated at 40° C. for 24 hours under occlusive conditions with moderate stirring. The skin permeability of RNA was visualized and quantified using confocal microscopy and tape-stripping techniques, respectively.
Porcine skin penetration ex-vivo studies Porcine skin studies were carried out in Franz diffusion cells (FDC) with penetration area of 1.77 cm^2. The porcine skin was obtained from Lampire Biological Laboratories, Pipersville, PA, USA. Briefly skins were thawed, hairs were trimmed, and washed with phosphate buffer saline (PBS, pH 7.4). A 36 mm punch was used to cut out a disc of the skin and a scalpel was used to get rid of the connective tissues and subcutaneous fat layers. […] 1 mL PBS was added to the donor chamber and the conductivity was measured using a waveform generator (Agilent 33120) and voltmeter (Fluke 87 True RMS Multimeter) at a frequency of 100 Hz and amplitude, 100 mV. Only skin samples with a measured transepidermal conductivity of less than […] were used for further studies. […] Following incubation, the skin was removed from the cell, washed gently with PBS and were further analyzed using tape-stripping and confocal microscopy. […]

Compound	physical state at room temperature [2]	siRNA secondary structure (CD, band at 210 nm) (siRNA)	pKa [3]	other results
C[N+](C)(C)CCO.O=C([O-])CO [CGLY2:1, choline-glycolate]	–	–	–	FITC-IgG fluorescence signal on intestinal villi vs no-CGLY2:1 control [1]: over 4.5 fold
choline and phenylpropanoic acid [CAPA]	viscous liquid	retained the secondary structure of siRNA	–	–
O=C(O)c1cccc(-c2ccccc2)c1 [Bipheny1-3-carboxylic acid]	–	–	4.14	–
choline and dimethylacrylic acid [CADA]	viscous liquid	notable alteration in the a helix backbone	–	–
O=S(=O)(O)c1ccc(O)cc1 [4-hydroxybenzenesulfonic acid]	–	–	9.11	–
choline and phenylphosphoric acid [CAPP]	solidified or formed a gel	–	–	–
CC(C)=CC(=O)O [3,3-dimethylacrylic acid]	–	–	5.02	–
choline and biphenyl-3-carboxylic acid [CABA]	solidified or formed a gel	notable alteration in the a helix backbone	–	–
choline and geranic acid [CAGE, reference compound]	viscous liquid	notable alteration in the a helix backbone	–	siRNA delivered into the epidermis (porcine skin): About 0.20 nmol/cm2
O=P(O)(O)Oc1ccccc1 [Phenylphosphoric acid]	–	–	9.99	–

Reference: patent US20240016735A1, “IONIC LIQUIDS FOR DRUG DELIVERY” (PRESIDENT AND FELLOWS OF HARVARD COLLEGE, priority 2019, published 2024)
